This passage reports Bacterial growth and Biofilm growth results from patent US11058111B2, “Use of multiple charged cationic compounds derived from primary amines or polyamines for microbial fouling control in a water system” (ECOLAB USA INC., priority 2018, dated 2021).

Assay [1] relates to mixture of aerobic populations from more than 30 cooling systems in North America. Put plainly: Bacterial growth inhibition test, similar to the MBEC assay; growth recorded visually or by turbidity at 650 nm. Particulars: 40-48 hours incubation at 32-35° C. Further details: key: “−” indicates no detectable growth at the end of test; “+” indicates detectable growth; “+/−” partial growth; “++” more growth. The assay is classed as cell-based. An excerpt: The microbial and biofilm inhibition test protocols used in this example is similar to the MBEC (Minimum Biofilm Eradication Concentration) assay and American Society for Testing and Materials (ASTM) MBEC-[…]-12 (2011) assay, both of which are commonly used. This test protocol can be used laboratory and field applications. The test protocol can be conducted in a 12-well or 96-well tissue culture plate format. The 12-well plate format is mainly for lab based and detailed screening/studies. The 96-well format is developed mainly for field applications. The test protocol starts with the preparation of the water sample to be tested by mixing the water from different water systems or artificial water with known bacterial populations with limited nutrient (16% of medium, 2% (w/w) casitone, 0.8% (w/w) yeast extracts, 4% (v/v) glycerol, 4 ppm FeCl3) and the solution of the treatment chemical. This step usually generates a series of the treated water samples with different concentrations for the treatment chemical(s) (from about 0.8 ppm to 1,000 ppm). Next, 200 μL of each treated water samples were transferred to a 96 well plate or 12 well plate. Usually, six replicates would be tested for each concentration of the treatment chemical(s) and controls with no treatment chemical and no bacterial were also placed in the plate(s). After the treated samples were properly plated, the plate(s) are placed on a slow rotary shaker in a humidity-controlled environment on at 32-35° C. for 40-48 hours of incubation. After the incubation, the bacterial growth in each well of the plate was recorded either visually or by a microplate turbidity reader at 650 nm to determine the minimum bacterial growth inhibition concentration for a treatment chemical. The bacteria used in this example for microbial and/or biofilm growth inhibition test protocols comprised a mixture of aerobic populations from more than 30 cooling systems in North America. The specific species were not specifically identified. Those species were grown on […] agar.

Assay [2] relates to biofilm of a mixture of aerobic populations from more than 30 cooling systems in North America. Put plainly: Biofilm growth inhibition test, similar to the MBEC assay; INT or crystal violet stain of biofilm on well walls. The assay is classed as cell-based. Further details: key: “−” indicates no detectable growth at the end of test; “+” indicates detectable growth; “+/−” partial growth; “++” more growth. Particulars: 40-48 hours incubation at 32-35° C. The text has this:
The microbial and biofilm inhibition test protocols used in this example is similar to the MBEC (Minimum Biofilm Eradication Concentration) assay and American Society for Testing and Materials (ASTM) MBEC-[…]-12 (2011) assay, both of which are commonly used. This test protocol can be used laboratory and field applications. The test protocol can be conducted in a 12-well or 96-well tissue culture plate format. The 12-well plate format is mainly for lab based and detailed screening/studies. The 96-well format is developed mainly for field applications. The test protocol starts with the preparation of the water sample to be tested by mixing the water from different water systems or artificial water with known bacterial populations with limited nutrient (16% of medium, 2% (w/w) casitone, 0.8% (w/w) yeast extracts, 4% (v/v) glycerol, 4 ppm FeCl3) and the solution of the treatment chemical. This step usually generates a series of the treated water samples with different concentrations for the treatment chemical(s) (from about 0.8 ppm to 1,000 ppm). Next, 200 μL of each treated water samples were transferred to a 96 well plate or 12 well plate. Usually, six replicates would be tested for each concentration of the treatment chemical(s) and controls with no treatment chemical and no bacterial were also placed in the plate(s). After the treated samples were properly plated, the plate(s) are placed on a slow rotary shaker in a humidity-controlled environment on at 32-35° C. for 40-48 hours of incubation. After this step, the bacterial cultures in the plate(s) were carefully poured out and 250 ul of dyes (350 ppm 2-(4-Iodophenyl)-3-(4-nitrophenyl)-5-phenyltetrazolium chloride (INT) or 2,000 ppm crystal violent (CV) for biofilm matrix stain) was added to each well for activity stain in biofilms on well walls. After 10-15 minutes, pour out the dye and gently wash the wells with deionized water until no colored water is running of the plate(s). After drying the plate(s), each well was inspected visually for staining and results are recorded. Alternatively, use 300 uL ethanol to extract CV dyes and transfer 200 uL of ethanol to a new plate for microtiter plate recording at 590 nm. […] The bacteria used in this example for microbial and/or biofilm growth inhibition test protocols comprised a mixture of aerobic populations from more than 30 cooling systems in North America. The specific species were not specifically identified. Those species were grown on […] agar.

As for `CCCCCCCCCCCCCCCCN(CCC(=O)NCCC[N+](C)(C)C)CCC(=O)NCCC[N+](C)(C)C.[Cl-].[Cl-]` [Compound 2, 3,3′-((3,3′-(hexadecylazanediyl)bis(propanoyl))bis(azanediyl))bis(N,N,N-trimethylpropan-1-aminium) chloride], the Bacterial growth entry in assay [1] (test concentration 0.8 ppm), in assay [1] (test concentration 1.5 ppm), in assay [1] (test concentration 3 ppm), in assay [1] (test concentration 6 ppm), in assay [1] (test concentration 12 ppm) and in assay [1] (test concentration 25 ppm) was “+” in each case. For the same compound, the Bacterial growth entry is listed as “+/−” in assay [1] (test concentration 50 ppm); “−” in assay [1] (test concentration 63 ppm); “−” in assay [1] (test concentration 125 ppm); “−” in assay [1] (test concentration 250 ppm); “−” in assay [1] (test concentration 500 ppm); “−” in assay [1] (test concentration 1000 ppm). In addition, the Biofilm growth result is “+” in assay [2] (test concentration 0.8 ppm); “+” in assay [2] (test concentration 1.5 ppm); “+” in assay [2] (test concentration 3 ppm); “+” in assay [2] (test concentration 6 ppm); “+” in assay [2] (test concentration 12 ppm); “+/−” in assay [2] (test concentration 25 ppm). The Biofilm growth result in assay [2] (test concentration 50 ppm), in assay [2] (test concentration 63 ppm), in assay [2] (test concentration 125 ppm), in assay [2] (test concentration 250 ppm), in assay [2] (test concentration 500 ppm) and in assay [2] (test concentration 1000 ppm) was “−” in each case.
Take `CCCCCCCCCCCCN(CCC(=O)NCCC[N+](C)(C)C)CCC(=O)NCCC[N+](C)(C)C.[Cl-].[Cl-]` [Compound 1, 3,3′-((3,3′-(dodecylazanediyl)bis(propanoyl))bis(azanediyl))bis(N,N,N-trimethylpropan-1-aminium) chloride]: the Bacterial growth entry in assay [1] (test concentration 0.8 ppm), in assay [1] (test concentration 1.5 ppm), in assay [1] (test concentration 3 ppm), in assay [1] (test concentration 6 ppm), in assay [1] (test concentration 12 ppm) and in assay [1] (test concentration 25 ppm) was “+” in each case. The Bacterial growth entry in assay [1] (test concentration 50 ppm) is “+”; in assay [1] (test concentration 63 ppm) it was “+”; in assay [1] (test concentration 125 ppm), “+”; in assay [1] (test concentration 250 ppm) it was “+”; in assay [1] (test concentration 500 ppm) it was “+”; in assay [1] (test concentration 1000 ppm), “−”. For the same compound, the Biofilm growth result in assay [2] (test concentration 0.8 ppm), in assay [2] (test concentration 1.5 ppm), in assay [2] (test concentration 3 ppm), in assay [2] (test concentration 6 ppm), in assay [2] (test concentration 12 ppm) and in assay [2] (test concentration 25 ppm) was “+” each time. In addition, the Biofilm growth entry in assay [2] (test concentration 50 ppm) is on record as “+”; in assay [2] (test concentration 63 ppm), “+”; in assay [2] (test concentration 125 ppm), “+”; in assay [2] (test concentration 250 ppm) it was “+/−”; in assay [2] (test concentration 500 ppm), “−”; in assay [2] (test concentration 1000 ppm), “−”.
With “3,3′-((3,3′-(octylazanediyl)bis(propanoyl))bis(azanediyl))bis(N,N,N-trimethylpropan-1-aminium) chloride [Compound 4]”, the Bacterial growth result is “+” in assay [1] (test concentration 0.8 ppm); “+” in assay [1] (test concentration 1.5 ppm); “+” in assay [1] (test concentration 3 ppm); “++” in assay [1] (test concentration 6 ppm); “+/−” in assay [1] (test concentration 12 ppm); “−” in assay [1] (test concentration 25 ppm). For the same compound, the Bacterial growth result in assay [1] (test concentration 50 ppm), in assay [1] (test concentration 63 ppm), in assay [1] (test concentration 125 ppm), in assay [1] (test concentration 250 ppm), in assay [1] (test concentration 500 ppm) and in assay [1] (test concentration 1000 ppm) was “−” throughout. Moreover, the Biofilm growth entry in assay [2] (test concentration 0.8 ppm) is “+”; in assay [2] (test concentration 1.5 ppm) it was “+”; in assay [2] (test concentration 3 ppm), “+/−”; in assay [2] (test concentration 6 ppm), “−”; in assay [2] (test concentration 12 ppm), “−”; in assay [2] (test concentration 25 ppm) it was “−”. The Biofilm growth entry in assay [2] (test concentration 50 ppm), in assay [2] (test concentration 63 ppm), in assay [2] (test concentration 125 ppm), in assay [2] (test concentration 250 ppm), in assay [2] (test concentration 500 ppm) and in assay [2] (test concentration 1000 ppm) was “−” throughout.
In the case of `CCCCCCCCC=CCCCCCCCCN(CCC(=O)NCCC[N+](C)(C)C)CCC(=O)NCCC[N+](C)(C)C.[Cl-].[Cl-]` [Compound 3, 3,3′-((3,3′-(octadec-9-en-1-ylazanediyl)bis(propanoyl))bis(azanediyl)) bis(N,N,N-trimethylpropan-1-aminium) chloride], the Bacterial growth entry in assay [1] (test concentration 0.8 ppm), in assay [1] (test concentration 1.5 ppm), in assay [1] (test concentration 3 ppm), in assay [1] (test concentration 6 ppm), in assay [1] (test concentration 12 ppm) and in assay [1] (test concentration 25 ppm) was “+” throughout. The Bacterial growth result is on record as “+/−” in assay [1] (test concentration 50 ppm); “+/−” in assay [1] (test concentration 63 ppm); “−” in assay [1] (test concentration 125 ppm); “−” in assay [1] (test concentration 250 ppm); “−” in assay [1] (test concentration 500 ppm); “−” in assay [1] (test concentration 1000 ppm). Besides, the Biofilm growth result is “+” in assay [2] (test concentration 0.8 ppm); “+” in assay [2] (test concentration 1.5 ppm); “+” in assay [2] (test concentration 3 ppm); “+” in assay [2] (test concentration 6 ppm); “+/−” in assay [2] (test concentration 12 ppm); “+/−” in assay [2] (test concentration 25 ppm). In addition, the Biofilm growth result in assay [2] (test concentration 50 ppm) is “+/−”; in assay [2] (test concentration 63 ppm) it was “−”; in assay [2] (test concentration 125 ppm), “−”; in assay [2] (test concentration 250 ppm) it was “−”; in assay [2] (test concentration 500 ppm), “−”; in assay [2] (test concentration 1000 ppm), “_”.
